Test results published in patent publication US20260273012A1, “Camellia Oleifera Tea Oil Concentrate and Uses Thereof” (Laboratoires Expanscience, priority 2023, published 2026).

Key:
Type in all cases: cell-based
[1] = tested on: CXCL1, IL8, IL6, CCL2, SOD2, HAS2, MMP1, MMP3 gene expression in normal human dermal fibroblasts; experiment: Inflamm'aging model: gene expression in fibroblasts incubated with conditioned media of PMA-stimulated reconstructed epidermis; conditions: Dexa. 1 μM; control = 100
Procedure: Tea oil concentrate was evaluated in an in vitro model reproducing the process of “inflammaging”: inflammation, represented by the stimulation of IL-1 alpha production, is induced on reconstructed epidermis. The conditioned media of these reconstructed epidermis are then applied to fibroblasts and the expression of dermal markers, altered by IL1a produced by the epidermis, is evaluated.
Reconstructed epidermis were treated topically with a formulation (cream) containing 1% tea tree oil concentrate or its placebo, or systemically with 1 μM dexamethasone, an anti-inflammatory reference. After 24 hours of pre-incubation, epidermis were stimulated with 0.5 μg/ml of PMA and incubated again for 24 hours.
Culture subnatants were collected, IL-1 alpha assay was performed on the one hand, and on the other hand, these subnatants (conditioned media) were deposited on cultures of normal human dermal fibroblasts.
After 24 hours of incubation of fibroblasts in the presence of conditioned media, the expression of markers of interest was assessed by real-time quantitative PCR.
(§1) The results were statistically analyzed using ANOVA followed by Tukey's test.

Interleukin-1 alpha = experiment: IL-1 alpha produced by reconstructed epidermis stimulated by PMA; conditions: Dexamethasone 1 μM systemically; PMA 0.5 μg/mL
Procedure: (§2) The anti-inflammatory activity of tea oil concentrate (THE) was investigated by assaying interleukin-1 alpha (IL-1 alpha) produced by keratinocytes in response to pro-inflammatory stress induced by PMA (Phorbol-Myristate-Acetate) in a normal human keratinocyte model, in a reconstructed epidermis model subjected to PMA stress, as well as in a reconstructed epidermis model subjected to SDS (Sodium Dodecyl Sulfate) stress.
Reconstructed epidermis were treated topically with a formulation (cream) containing 1% tea tree oil concentrate or its placebo, or systemically with 1 μM dexamethasone, an anti-inflammatory reference. After 24 hours of pre-incubation, epidermis were stimulated with 0.5 μg/mL of PMA and incubated again for 24 hours.
Culture subnatants were collected then IL-1 alpha assay was performed.
as §1
Reconstructed epidermis were treated topically with a formulation (cream) containing 1% tea tree oil concentrate or its placebo, or systemically with 1 μM dexamethasone, an anti-inflammatory reference. After 24 hours of pre-incubation, epidermis were stimulated with 0.5 μg/ml of PMA and incubated again for 24 hours. […]

[2] = tested on: interleukin-1 alpha (IL-1 alpha); experiment: IL-1 alpha produced by normal human keratinocytes under PMA-induced inflammatory stress (ELISA); conditions: Dexamethasone 0.1 μM, PMA 10 μg/ml
Procedure: as §2
Normal human keratinocytes were pre-incubated for 24 hours in the presence of 0.001%, 0.005% or 0.01% tea tree oil concentrate or 0.1 μM dexamethasone, an anti-inflammatory reference. The cells were then stimulated by overnight treatment in the presence of 10 μg/mL PMA (Phorbol-Myristate-Acetate).
At the end of treatment, IL-1 alpha produced was quantified by ELISA assay in culture supernatants.
The results were statistically analyzed by one-way analysis of variance (ANOVA), followed by Tukey post-test.

cortisol = experiment: Cortisol produced by skin explants stimulated by ACTH + 42° C. (ELISA); conditions: Metyrapone 1 mM
Procedure: Skin explants were treated topically with a formulation (cream) containing 1% tea oil concentrate, or its placebo, or treated systemically (in the culture medium) with 0.001% tea oil concentrate and the positive reference metyrapone at 1 mM. The explants were incubated for 24 hours then stressed with 0.6 μM ACTH (Adreno Corticotropic Hormone), a hormone that induces cortisol production. This stress was coupled with explant culture in a 42° C. incubator to potentiate the increase in cortisol production. The explants were again treated with topical products or the active ingredient and the positive reference systemically. After 24 hours of incubation, the culture media were recovered and an ELISA assay for cortisol was performed. The results were statistically analyzed by Student's test t.

[3] = tested on: dermal matrix markers (Collagen III, Fibrillin 1); experiment: Gene expression of dermal matrix markers in normal human dermal fibroblasts (real-time PCR); conditions: TGFβ 1 5 ng/ml, 48 hours
Procedure: The effect of tea oil concentrate on the expression of dermal matrix markers was evaluated in cultured normal human dermal fibroblasts.
Normal human dermal fibroblasts were incubated for 48 hours in the presence of 0.001% and 0.005% tea oil concentrate or 5 ng/ml TGFβ1, the positive reference of the test.
Gene expression of Collagen Ill and Fibrillin 1 was evaluated by quantitative real-time PCR. The results were statistically analyzed by one-way analysis of variance (ANOVA), followed by Dunnett's post-test.

[4] = ACTH 0.6 μM + 42° C., Table 16 (systemic series)

## C[C@@H]1C[C@H]2[C@@H]3CCC4=CC(=O)C=C[C@]4(C)[C@@]3(F)[C@@H](O)C[C@]2(C)[C@@]1(O)C(=O)CO [Dexamethasone, dexamethasone]
[1]
  CCL2 expression level in relative quantity: 193
  CXCL1 expression level in relative quantity: 1503
  HAS2 expression level in relative quantity: 104
  IL6 expression level in relative quantity: 305
  IL8 expression level in relative quantity: 1350
  MMP1 expression level in relative quantity: 52
  MMP3 expression level in relative quantity: 74
  SOD2 expression level in relative quantity: 354
Interleukin-1 alpha
  % Protection: 48%
  Interleukin-1 alpha: 334 ± 41 pg/mL
[2]; 24 h pre-incubation
  IL-1 alpha: 66.6 ± 0.5 pg/mL
[2]
  Protection (%): 74%

## CC(C)(C(=O)c1cccnc1)c1cccnc1 [Metyrapone, metyrapone]
cortisol; [4]
  Cortisol % Protection: 70%
  Cortisol Relative quantification: 1.08 ± 0.12
cortisol; ACTH 0.6 μM + 42° C., Table 17 (topical series)
  Cortisol Relative quantification: 1.08 ± 0.12
cortisol; Table 17 (topical series)
  Cortisol % Protection (vs ACTH/42° C.): 73%

## TGFβ 1: the positive reference of the test
[3]
  Collagen III gene expression (Relative Quantity): 1.55 ± 0.25
  Fibrillin 1 gene expression (Relative Quantity): 1.53 ± 0.18
[3]; vs control cells
  Collagen III gene expression % induction: +78% p < 0.05
  Fibrillin 1 gene expression % induction: +74% p < 0.05
